Assay results: PubChem BioAssay AID1552 (Sanford-Burnham Center for Chemical Genomics, 2009)
The source made the active and inactive calls. How the calls were made is not given here.

What follows are compounds tested against Ubiquitin-conjugating enzyme E2 N (Homo sapiens) (UniProt P61088) (assay: UBE2N binders by NMR, biophysical, purified protein (AID 1552)). Conditions: NMR binding to purified UBE2N.
Chain of Ubiquitin-conjugating enzyme E2 N (Homo sapiens) (P61088 whole entry, looked up): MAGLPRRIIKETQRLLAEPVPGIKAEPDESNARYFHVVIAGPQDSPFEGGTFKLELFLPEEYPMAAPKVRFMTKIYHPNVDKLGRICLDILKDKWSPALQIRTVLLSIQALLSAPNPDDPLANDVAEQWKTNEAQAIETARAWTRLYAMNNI
For `Cc1cc(C(=O)N2CCN(S(C)(=O)=O)CC2)cs1`, the Kd was > 4 mM (inactive). In the case of `Cc1cccc(NC(=O)CN2C(=O)CNC2=O)c1`, the Kd is reported as > 4 mM (inactive). For `Fc1cc2nccnc2cc1N1CCSCC1`, the Kd was > 4 mM (inactive). With `COc1ccccc1-c1noc(-c2ccncc2)n1` the Kd was > 4 mM (inactive). `CC1(C)C(=O)C=C[C@@]2(C)C1C[C@@H](O)[C@]1(C)C2CC[C@@]2(C)[C@H](c3ccoc3)OC(=O)[C@H]3O[C@]321` (some centres not stated) was tested, and the Kd was > 4 mM (inactive). In the case of `NC(=O)c1cccc2c1OCCO2`, the Kd is reported as > 4 mM (inactive). For `CC(=O)NC(=S)Nc1cccc(C(=O)O)c1C`, the Kd was > 4 mM (inactive). `CC1/C(=N/O)C[C@@H]2C[C@H]1C2(C)C` (some centres not stated) was tested, and the Kd was > 4 mM (inactive). In the case of `COc1ccc(-c2ccc(SCC(N)=O)nn2)cc1`, the Kd is reported as > 4 mM (inactive). In the case of `O=C(O)CSc1nnc(-c2cccs2)o1`, the Kd is reported as > 4 mM (inactive). For `COc1cc(O)c(C(C)=O)c(OC)c1`, the Kd was > 4 mM (inactive). In the case of `S=c1[nH]nc(-c2cccnc2)n1C1CCCCC1`, the Kd is reported as > 4 mM (inactive). `Nc1cc(=O)[nH]c(=S)n1-c1cccc(C(F)(F)F)c1` was tested, and the Kd was > 4 mM (inactive). For `N#CCSc1nc(-c2ccccc2)cs1`, the Kd was > 4 mM (inactive). With `CC(=O)c1c(C)nc(-c2ccc(Cl)cc2Cl)n1O` the Kd was > 4 mM (inactive). With `O=C1CCC(C(=O)NCc2cccnc2)N1` (configuration not stated) the Kd was > 4 mM (inactive). In the case of `CC(=O)OCC[C@H](C)CCC=C(C)C`, the Kd is reported as > 4 mM (inactive). In the case of `NC1=NC(=O)/C(=C/c2cccs2)S1`, the Kd is reported as > 4 mM (inactive). With `C/C=C(/C)C(=O)O[C@@H]1[C@H](OC(C)=O)[C@@]2(CO)C(CC1(C)C)C1=CCC3[C@@]4(C)CC[C@H](O[C@@H]5O[C@H](C(=O)O)[C@@H](O[C@@H]6O[C@H](CO)[C@@H](O)[C@H](O)[C@H]6O)[C@H](O)[C@H]5O[C@@H]5O[C@H](CO)[C@@H](O)[C@H](O)[C@H]5O)[C@](C)(CO)C4CC[C@@]3(C)[C@]1(C)C[C@H]2O` (some centres not stated) the Kd was > 4 mM (inactive). In the case of `C=CCCCCCCCCCCCC(O)CC(O)COC(C)=O` (configuration not stated) (tested in a mixture with another compound), the Kd is reported as > 4 mM (inactive). In the case of `O=C(O)c1cccc(CSc2ncccn2)c1`, the Kd is reported as > 4 mM (inactive). For `CCC(=O)Nc1cccc(NC(C)=O)c1`, the Kd was > 4 mM (inactive). For `NC(=O)CSCc1ccc(Br)cc1`, the Kd was > 4 mM (inactive). `CC(=O)Nc1nnc(-c2ccncc2)s1` was tested, and the Kd was > 4 mM (inactive). For `CS(=O)(=O)N1CCN(c2ncccn2)CC1`, the Kd was > 4 mM (inactive). In the case of `O=C(NN=C1CCCC1)c1ccncc1`, the Kd is reported as > 4 mM (inactive). With `CCc1cc2c(SCC(=O)O)ncnc2s1` the Kd was > 4 mM (inactive). With `O=S1(=O)CCC2CC=CCC21` (configuration not stated) the Kd was > 4 mM (inactive). In the case of `C(=C\c1ccccc1)/C=N/n1cnnc1`, the Kd is reported as > 4 mM (inactive). `OC1CCN(Cc2ccc[nH]2)CC1` was tested, and the Kd was > 4 mM (inactive). With `COc1ccccc1-c1nc(=S)[nH][nH]1` the Kd was > 4 mM (inactive). With `S=C(c1cccnc1)N1CCOCC1` the Kd was > 4 mM (inactive). With `Cc1nnc(SCc2ccon2)n1-c1ccccc1` the Kd was > 4 mM (inactive). For `O=S(=O)(O)c1nc2ccccc2[nH]1`, the Kd was > 4 mM (inactive). For `Cc1cc(NC(=O)c2ocnc2C)no1`, the Kd was > 4 mM (inactive). For `COC(=O)c1noc(-c2ccc(OC)cc2)n1`, the Kd was > 4 mM (inactive). `CC(=O)O[C@@H]1CC2C(C)(C)[C@H](O)C[C@H](O)[C@]2(C)C2CC[C@@]3(C)C(=CC(=O)O[C@H]3c3ccoc3)[C@@]21C` (some centres not stated) was tested, and the Kd was > 4 mM (inactive). With `CNC(=O)C(=O)Nc1cccc(Cl)c1` the Kd was > 4 mM (inactive). `CC1(C)Oc2ccc3ccc(=O)oc3c2CC1O` (configuration not stated) was tested, and the Kd was > 4 mM (inactive). For `CSc1nc(NC(C)C)nc(N2CCOCC2)n1`, the Kd was > 4 mM (inactive). With `O=C(NCc1cccs1)c1ccncc1` the Kd was > 4 mM (inactive). In the case of `O=c1[nH]c(NCCO)nnc1Cc1ccccc1`, the Kd is reported as > 4 mM (inactive). `Cc1cc(C(=O)N2CCC3(CC2)OCCO3)cs1` was tested, and the Kd was > 4 mM (inactive). With `NC(=O)C12CC3CC(C1)C(=O)C(C3)C2` the Kd was > 4 mM (inactive). For `CC1=NN(C(N)=S)C(C)(C)C1`, the Kd was > 4 mM (inactive). With `O=C(/C=C/c1ccc(O)cc1)c1ccc(O)cc1O` the Kd was > 4 mM (inactive). For `Nc1ccc(-c2cnco2)cc1`, the Kd was > 4 mM (inactive). `Cc1cc(C(=O)N2CCN(c3ccccn3)CC2)c(C)o1` was tested, and the Kd was > 4 mM (inactive). For `CC1CN=C(Nc2ccccc2)S1` (configuration not stated), the Kd was > 4 mM (inactive). With `C=C[C@H]1CN2CC[C@H]1C[C@H]2[C@H](O)c1ccnc2ccccc12` the Kd was > 4 mM (inactive). With `CCC(C)OC1CCS(=O)(=O)C1` (configuration not stated) the Kd was > 4 mM (inactive). `Nc1ccc(-n2cccc2)cc1` was tested, and the Kd was > 4 mM (inactive). With `O=CN1CCN(C(=O)c2ccco2)CC1` the Kd was > 4 mM (inactive). `CCCc1cc2c(c(NC(C)=O)n1)c(=O)oc1ccccc12` was tested, and the Kd was > 4 mM (inactive). In the case of `C=CCn1c(N)c(C(=O)N2CCOCC2)sc1=S`, the Kd is reported as > 4 mM (inactive). With `CC(=O)c1cc(CN2C(=O)c3ccccc3C2=O)cs1` the Kd was > 4 mM (inactive). With `Cc1nc2nc(-c3ccco3)nn2c(C)c1Cl` the Kd was > 4 mM (inactive). In the case of `O=NN1C(=O)c2ccccc2C1=O`, the Kd is reported as > 4 mM (inactive). With `C[C@@H]1O[C@@H](O[C@H]2[C@H](Oc3cc(O)c4c(=O)cc(-c5ccc(O)cc5)oc4c3)O[C@H](CO)[C@@H](O)[C@@H]2O)[C@H](O)[C@H](O)[C@H]1O` the Kd was > 4 mM (inactive). With `O=C(O)c1ccccc1C(=O)NCC1CCCO1` (configuration not stated) the Kd was > 4 mM (inactive). `NC(=O)CSc1nnc(-c2ccncc2)o1` was tested, and the Kd was > 4 mM (inactive). In the case of `Cc1ccc(C(C)C)cc2c(C)ccc1-2`, the Kd is reported as > 4 mM (inactive). `Cn1c(=O)c2cn3ncccc3c2n(C)c1=O` was tested, and the Kd was > 4 mM (inactive). With `O=[n+]1cc(-c2ccccc2)n([O-])c2c1CCC2` the Kd was > 4 mM (inactive). `CC1Cc2nc(SCC(N)=O)n(C)c(=O)c2S1` (configuration not stated) was tested, and the Kd was > 4 mM (inactive). For `Cc1c(N=CN(C)C)c(=O)n(-c2ccccc2)n1C`, the Kd was > 4 mM (inactive). For `Cn1ccnc1C(O)c1ccccc1` (configuration not stated), the Kd was > 4 mM (inactive). With `COc1cccc(S(=O)(=O)Nc2cccnc2)c1` the Kd was > 4 mM (inactive). For `CC(=O)O[C@H]1CC[C@]2(C)C3CC[C@@]4(C)C(CC5O[C@@]6(CCC(C)CO6)[C@@H](C)C54)C3CC[C@@H]2C1` (some centres not stated), the Kd was > 4 mM (inactive). `Cc1nc(-c2ccccc2)ncc1C(=O)O` was tested, and the Kd was > 4 mM (inactive). In the case of `CSc1ccccc1NC(=O)c1ccncc1`, the Kd is reported as > 4 mM (inactive). With `O=C(Nc1nnc(-c2ccncc2)o1)c1cccs1` the Kd was > 4 mM (inactive). With `NC(=O)CSc1ccc2nnc(-c3ccccc3)n2n1` the Kd was > 4 mM (inactive). In the case of `NC(=O)CSc1nc2[nH]ncc2c(=O)[nH]1`, the Kd is reported as > 4 mM (inactive). In the case of `OC1CC2CCC1C2` (configuration not stated), the Kd is reported as > 4 mM (inactive). With `O=C(O)c1ccc2nsnc2c1` the Kd was > 4 mM (inactive). `Cc1cc(C)nc(N(C#N)Cc2ccccc2)n1` was tested, and the Kd was > 4 mM (inactive). In the case of `CC(C)CCCC(C)C1CCC2C3CC(=O)[C@H]4C[C@@H](O)CC[C@]4(C)C3CC[C@]12C` (some centres not stated), the Kd is reported as > 4 mM (inactive). In the case of `Cc1ccc(C)n1/N=C1\NC(=O)CS1`, the Kd is reported as > 4 mM (inactive). In the case of `CC(C)CCCC(C)C1CCC2C3=CC[C@H]4C[C@@H](O)CC[C@]4(C)C3CC[C@@]21C` (some centres not stated), the Kd is reported as > 4 mM (inactive). For `Cc1cc(S(=O)(=O)N2CCOCC2)ccc1F`, the Kd was > 4 mM (inactive). `O=C(O)/C=C/C=C/c1ccccc1` was tested, and the Kd was > 4 mM (inactive).
